Data set [1] deals with T1, CYP1A2 (Homo sapiens, UniProt P05177).
T1 sequence (P05177 1-516): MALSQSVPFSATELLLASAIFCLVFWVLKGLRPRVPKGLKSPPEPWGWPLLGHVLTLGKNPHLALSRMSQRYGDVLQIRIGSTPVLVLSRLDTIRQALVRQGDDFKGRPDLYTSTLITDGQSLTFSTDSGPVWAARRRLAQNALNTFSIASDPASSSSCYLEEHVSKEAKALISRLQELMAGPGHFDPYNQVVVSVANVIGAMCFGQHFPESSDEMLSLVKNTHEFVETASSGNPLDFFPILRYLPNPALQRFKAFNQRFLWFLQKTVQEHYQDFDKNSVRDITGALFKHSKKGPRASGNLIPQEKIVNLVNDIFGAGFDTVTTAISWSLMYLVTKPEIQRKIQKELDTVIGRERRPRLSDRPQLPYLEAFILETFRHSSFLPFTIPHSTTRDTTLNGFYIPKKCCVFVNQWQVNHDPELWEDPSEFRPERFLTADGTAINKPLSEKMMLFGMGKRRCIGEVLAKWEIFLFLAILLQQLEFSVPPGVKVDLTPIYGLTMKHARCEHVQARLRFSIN
The data set can be described thus: Competitive. In kind it is in vitro ADME.

For data set [2], the target named is T2, CYP2A6 (Homo sapiens, UniProt P11509).
T2 sequence (P11509 1-494): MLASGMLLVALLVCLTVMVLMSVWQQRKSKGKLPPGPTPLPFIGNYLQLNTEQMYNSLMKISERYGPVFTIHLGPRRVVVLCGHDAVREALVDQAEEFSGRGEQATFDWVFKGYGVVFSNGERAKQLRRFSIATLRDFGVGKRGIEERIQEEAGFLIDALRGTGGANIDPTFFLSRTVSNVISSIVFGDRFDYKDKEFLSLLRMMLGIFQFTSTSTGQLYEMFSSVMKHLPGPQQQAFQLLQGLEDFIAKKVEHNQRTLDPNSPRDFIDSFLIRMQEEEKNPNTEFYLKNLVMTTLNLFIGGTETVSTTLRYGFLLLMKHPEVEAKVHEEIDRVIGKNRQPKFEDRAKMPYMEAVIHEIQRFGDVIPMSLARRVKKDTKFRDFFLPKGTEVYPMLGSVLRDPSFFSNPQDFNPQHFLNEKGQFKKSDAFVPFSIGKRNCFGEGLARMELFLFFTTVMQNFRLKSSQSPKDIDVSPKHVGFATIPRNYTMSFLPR
The data set can be described thus: Competitive. In kind it is in vitro ADME.

The target of data set [3] is T2, CYP2A6. The data set can be described thus: Time-dependent. In kind it is in vitro ADME. The settings on record: 30 min pre‐incubation with/without NADPH; coumarin 7‐hydroxylation.
Data set [4] deals with T3, CYP2C8 (Homo sapiens, UniProt P10632).
T3 sequence (P10632 1-490): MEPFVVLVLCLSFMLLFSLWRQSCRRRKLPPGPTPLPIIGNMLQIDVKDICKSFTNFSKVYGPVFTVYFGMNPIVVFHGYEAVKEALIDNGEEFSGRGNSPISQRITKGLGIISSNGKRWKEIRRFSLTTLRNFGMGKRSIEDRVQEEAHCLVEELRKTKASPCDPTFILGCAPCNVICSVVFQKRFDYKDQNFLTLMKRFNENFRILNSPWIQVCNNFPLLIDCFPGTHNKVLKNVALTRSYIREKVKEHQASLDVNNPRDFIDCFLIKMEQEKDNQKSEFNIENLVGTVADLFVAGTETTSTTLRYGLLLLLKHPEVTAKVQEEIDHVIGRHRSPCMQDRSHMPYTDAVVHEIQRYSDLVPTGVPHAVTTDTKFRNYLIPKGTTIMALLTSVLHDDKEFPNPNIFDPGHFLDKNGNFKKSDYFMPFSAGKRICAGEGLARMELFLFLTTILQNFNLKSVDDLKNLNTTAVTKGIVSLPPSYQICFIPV
The data set can be described thus: Time-dependent. In kind it is in vitro ADME. The settings on record: 30 min pre‐incubation with/without NADPH; paclitaxel 6α‐hydroxylation.

The target in data set [5] is T4, CYP3A4 (Homo sapiens, UniProt P08684). Description: Covalent binding. In kind it is in vitro ADME.
T4 sequence (P08684 whole entry): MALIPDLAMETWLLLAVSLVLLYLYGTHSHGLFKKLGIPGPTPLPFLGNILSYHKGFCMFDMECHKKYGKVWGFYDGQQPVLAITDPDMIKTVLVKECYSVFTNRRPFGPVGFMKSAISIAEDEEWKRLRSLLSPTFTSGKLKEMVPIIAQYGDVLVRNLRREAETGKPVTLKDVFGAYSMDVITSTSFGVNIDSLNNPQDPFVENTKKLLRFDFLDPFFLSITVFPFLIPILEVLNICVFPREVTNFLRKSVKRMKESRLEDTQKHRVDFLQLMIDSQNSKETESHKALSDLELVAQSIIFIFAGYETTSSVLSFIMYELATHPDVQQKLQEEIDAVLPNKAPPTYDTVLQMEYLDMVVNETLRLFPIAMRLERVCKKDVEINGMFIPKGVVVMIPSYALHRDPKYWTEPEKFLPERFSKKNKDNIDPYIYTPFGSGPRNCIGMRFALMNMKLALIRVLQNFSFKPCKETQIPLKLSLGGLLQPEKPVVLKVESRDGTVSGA
The conditions of data set [6]: cited from earlier work.
Data set [7] deals with T4, CYP3A4. The data set can be described thus: Cocktail DDI study: PK of midazolam and 1-OH midazolam with/without nivasorexant.

For the compound `Cc1ccc(C(=O)N2CCOC[C@H]2Cc2cccc(-n3nccn3)c2)c(-n2nccn2)c1` [nivasorexant], the IC50 in data set [1] and in data set [2] was > 100 µM throughout. For the same compound, the IC50 shift entry was “none” in data set [3]; “no effect and none” in data set [4]. The “covalent binding (in words)” value in data set [5] is given as “covalent binding”. In data set [6] (across dose levels, healthy subjects), the “apparent mean terminal half‐life (t ½)” value was 3.3 to 6.5 h. Also, the “dose proportionality of AUCτ” value in data set [6] (multiple oral administration) was “dose proportional”. The “dose proportionality of C max” value in data set [6] (multiple oral administration) is reported as “less than dose proportional”. Further, the “CYP3A4 inhibitor classification according to regulatory guidance” value was “weak (≥1.25‐ to <2‐fold)” in data set [7] (after 1 day of 100 mg b.i.d.) and “moderate (≥ 2‐ to <5‐fold)” in data set [7] (after 8 days / repeated 100 mg b.i.d., steady state).

By IC50 is commonly meant the point on the concentration scale where inhibition reaches its midpoint. Low values mean higher potency, high ones lower potency.

These data come from PMC10557102 (Pharmacology Research & Perspectives, 2023).
